One assay concerns the target Jak2 wild type (Homo sapiens, UniProt O60674). Description: in vitro kinase assay with recombinant protein, autophosphorylation. Format: biochemical.
The target in a further assay is Jak2-V617F (Homo sapiens, UniProt O60674, V617F). The assay is described as above. Format: biochemical.
Chain of Jak2-V617F (O60674 545-1132 V617F limits assumed): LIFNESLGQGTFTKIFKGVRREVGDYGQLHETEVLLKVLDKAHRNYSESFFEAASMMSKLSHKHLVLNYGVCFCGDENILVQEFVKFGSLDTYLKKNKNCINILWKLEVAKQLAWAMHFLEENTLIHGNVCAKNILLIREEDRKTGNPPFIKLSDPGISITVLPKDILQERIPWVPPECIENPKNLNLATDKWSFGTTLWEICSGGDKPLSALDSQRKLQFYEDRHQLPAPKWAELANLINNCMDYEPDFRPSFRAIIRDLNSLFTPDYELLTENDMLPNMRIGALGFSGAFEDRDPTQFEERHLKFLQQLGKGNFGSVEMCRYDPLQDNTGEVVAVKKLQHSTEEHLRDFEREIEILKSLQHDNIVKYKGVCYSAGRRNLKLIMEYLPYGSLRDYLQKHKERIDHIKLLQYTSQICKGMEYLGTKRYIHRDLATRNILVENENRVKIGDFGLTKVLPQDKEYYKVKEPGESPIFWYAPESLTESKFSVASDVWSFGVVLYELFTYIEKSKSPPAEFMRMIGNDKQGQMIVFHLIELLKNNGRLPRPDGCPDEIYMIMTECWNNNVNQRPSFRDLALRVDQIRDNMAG

Chain of Jak2 wild type (O60674 whole entry): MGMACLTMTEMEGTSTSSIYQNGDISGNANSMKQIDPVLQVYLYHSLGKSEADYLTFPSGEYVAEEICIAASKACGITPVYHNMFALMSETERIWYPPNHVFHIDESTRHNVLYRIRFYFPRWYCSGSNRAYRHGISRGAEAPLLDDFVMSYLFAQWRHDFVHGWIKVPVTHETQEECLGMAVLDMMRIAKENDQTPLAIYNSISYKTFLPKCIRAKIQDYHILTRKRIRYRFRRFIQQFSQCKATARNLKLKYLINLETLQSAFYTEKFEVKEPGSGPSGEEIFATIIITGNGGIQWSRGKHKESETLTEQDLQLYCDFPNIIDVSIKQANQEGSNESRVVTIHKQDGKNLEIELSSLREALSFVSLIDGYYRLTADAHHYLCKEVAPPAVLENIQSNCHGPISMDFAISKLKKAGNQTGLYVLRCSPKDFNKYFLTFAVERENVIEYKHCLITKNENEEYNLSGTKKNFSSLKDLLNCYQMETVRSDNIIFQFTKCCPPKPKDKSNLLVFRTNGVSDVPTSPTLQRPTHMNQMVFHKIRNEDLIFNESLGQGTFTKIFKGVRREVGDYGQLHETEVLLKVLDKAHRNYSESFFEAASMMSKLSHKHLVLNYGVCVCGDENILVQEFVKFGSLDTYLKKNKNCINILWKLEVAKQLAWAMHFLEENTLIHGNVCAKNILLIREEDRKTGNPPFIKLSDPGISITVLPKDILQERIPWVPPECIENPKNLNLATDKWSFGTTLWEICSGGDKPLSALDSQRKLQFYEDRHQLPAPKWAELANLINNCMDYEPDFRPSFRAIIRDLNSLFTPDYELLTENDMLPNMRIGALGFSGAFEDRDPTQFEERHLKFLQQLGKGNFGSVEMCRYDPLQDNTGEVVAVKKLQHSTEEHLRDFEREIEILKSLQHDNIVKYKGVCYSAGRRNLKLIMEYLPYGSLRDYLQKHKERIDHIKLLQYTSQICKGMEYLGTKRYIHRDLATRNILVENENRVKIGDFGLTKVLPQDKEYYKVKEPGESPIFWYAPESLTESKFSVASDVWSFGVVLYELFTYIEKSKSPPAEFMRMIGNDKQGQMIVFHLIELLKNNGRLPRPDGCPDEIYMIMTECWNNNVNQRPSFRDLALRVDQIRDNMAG

For orientation: IC50 means the midpoint of a concentration-inhibition curve. As for `CN(C)c1ccc(C(O)c2cc3ccccc3s2)cc1` (centres unmarked) [A46, 1-benzothiophen-2-yl-(4-dimethylaminophenyl)methanol], the figures for the IC50 on Jak2 wild type and at Jak2-V617F were around 1000 nM and around 100 nM, respectively.

For the origin of these results see paper PMC3237899 (2011).
